In article PMC11338949, “E41K mutation activates Bruton’s tyrosine kinase by stabilizing an inositol hexakisphosphate-dependent invisible dimer” (The Journal of Biological Chemistry, 2024):

Biological target: T1, full-length BTK^E41K (Mus musculus, UniProt P35991, E41K)
T1 construct: The full-length BTK was cloned into the pET28-SUMO vector; His-SUMO (N, cleaved yes); made in house; host or cells: E. coli BL21-DE3, co-transformed with YopH and Trigger factor
Test: Autophosphorylation assay by immunoblot (Y551) of purified full-length BTK
Assay type: biochemical
Conditions: 2 μM BTK, 100 μM ligand, compared to unliganded state
Description: The activation of full-length BTK in response to the ligand was determined from the autophosphorylation Y551 or total phosphotyrosine level. Before each reaction, 2 μM BTK was incubated with 100 μM ligand for 10 min. The phosphorylation reaction was performed at 25 °C in a buffer containing 25 mM Tris-Cl (pH 7.5), 2 mM ATP, 10 mM MgCl2, and 1 mM Na3VO4. The reaction was quenched with SDS–PAGE loading buffer. The autophosphorylation levels of full-length BTK were detected by immunoblot ([22]). The amount of BTK loaded was determined using an anti-BTK antibody. Densitometric analysis of immunoblots was performed using Fiji software ([52]).

T1 sequence (P35991 whole entry E41K): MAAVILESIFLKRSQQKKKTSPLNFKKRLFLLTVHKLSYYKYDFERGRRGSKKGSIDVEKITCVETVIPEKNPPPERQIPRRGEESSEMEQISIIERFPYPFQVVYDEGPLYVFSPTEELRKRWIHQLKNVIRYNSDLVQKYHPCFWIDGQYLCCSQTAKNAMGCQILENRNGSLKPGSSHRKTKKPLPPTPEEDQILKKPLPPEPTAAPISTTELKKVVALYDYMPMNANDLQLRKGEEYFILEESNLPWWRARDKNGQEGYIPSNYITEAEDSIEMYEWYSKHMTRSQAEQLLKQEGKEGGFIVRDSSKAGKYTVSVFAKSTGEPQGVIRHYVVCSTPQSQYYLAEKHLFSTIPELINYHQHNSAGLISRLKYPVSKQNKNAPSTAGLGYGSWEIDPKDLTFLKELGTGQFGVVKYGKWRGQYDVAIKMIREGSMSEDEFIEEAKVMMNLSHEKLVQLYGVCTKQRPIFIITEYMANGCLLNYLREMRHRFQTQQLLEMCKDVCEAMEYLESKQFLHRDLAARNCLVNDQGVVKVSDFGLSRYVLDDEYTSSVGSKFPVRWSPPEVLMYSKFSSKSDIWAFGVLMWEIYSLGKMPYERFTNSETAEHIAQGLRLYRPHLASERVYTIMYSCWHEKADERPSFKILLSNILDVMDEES

Structure (SMILES)	Y551 phosphorylation of BTK^E41K
O=P(O)(O)O[C@@H]1[C@H](O)[C@H](O)[C@@H](OP(=O)(O)O)[C@H](OP(=O)(O)O)[C@H]1O [IP3]	does not induce
O=P(O)(O)OC1C(OP(=O)(O)O)C(OP(=O)(O)O)C(OP(=O)(O)O)C(OP(=O)(O)O)C1OP(=O)(O)O (centres unmarked) [IP6, inositol hexakisphosphate]	significantly increases
